# Test results: ChEMBL document CHEMBL2424528, “Novel tetrahydropyran analogs as dipeptidyl peptidase IV inhibitors: Profile of clinical candidate (2R,3S,5R)-2- (2,5-difluorophenyl)-5-(4,6-dihydropyrrolo [3,4-c]pyrazol-5-(1H)-yl)tetrahydro-2H-pyran-3-amine (23) [corrected]” (Bioorg Med Chem Lett, 2013)
# Activity calls are given as the source filed them. No cut-off for these calls is given here.
# Tests used:
# Mus musculus [1] = test: Induction in plasma GLP-1 level in lean mouse at 1 mg/kg; assay type: functional, organism-based; parameters: dose 1 mg/kg
# [2] = biological target: Voltage-dependent L-type calcium channel subunit alpha-1C (Homo sapiens, UniProt Q13936); test: Inhibition of Cav1.2 channel (unknown origin)
# [3] = Inhibition of cytochrome P450 (unknown origin); assay type: ADME; settings: human
# Mus musculus [4] = test: Antidiabetic activity in lean mouse assessed as reduction in blood glucose AUC at 3 mg/kg, po administered 1 hr prior to dextrose challenge by oral glucose tolerance test; assay type: functional; parameters: scale not given: the % may be the effect or the level left
# Rhesus monkey = test: Dose normalized AUC in rhesus monkey at 2 mg/kg, po; assay type: ADME, organism-based, Macaca mulatta; parameters: dose 2 mg/kg, route oral; settings: in vivo
# [5] = Terminal half life in beagle dog at 1 mg/kg, iv and 2 mg/kg, po; assay type: ADME, organism-based, Canis lupus familiaris; settings: in vivo, read-out: beta t1/2 (converted)
# [6] = Tmax in beagle dog at 1 mg/kg, iv and 2 mg/kg, po; assay type: ADME, organism-based, Canis lupus familiaris; settings: in vivo
# Rattus norvegicus = test: Dose normalized AUC in rat at 2 mg/kg, po; assay type: ADME, organism-based; parameters: dose 2 mg/kg, route oral; settings: in vivo
# [7] = Plasma clearance in rhesus monkey at 1 mg/kg, iv and 2 mg/kg, po; assay type: ADME, organism-based, Macaca mulatta
# Mus musculus [8] = test: Antidiabetic activity in orally dosed lean mouse assessed as reduction in blood glucose excursion administered 1 hr prior to dextrose challenge by oral glucose tolerance test; assay type: functional, organism-based
# [9] = Volume of distribution at steady state in rat at 1 mg/kg, iv and 2 mg/kg, po; assay type: ADME, organism-based; settings: in vivo, read-out: Vdss
# [10] = Terminal half life in rat at 1 mg/kg, iv and 2 mg/kg, po; assay type: ADME, organism-based; settings: in vivo, read-out: beta t1/2 (converted)
# [11] = Cmax in rhesus monkey at 2 mg/kg, po; assay type: ADME, organism-based, Macaca mulatta; parameters: dose 2 mg/kg, route oral; settings: in vivo
# Mus musculus [12] = test: Antidiabetic activity in wild type lean mouse assessed as inhibition of blood glucose excursion at 3 mg/kg administered 1 hr prior to dextrose challenge by oral glucose tolerance test; assay type: functional
# [13] = Oral bioavailability in beagle dog at 2 mg/kg; assay type: ADME, organism-based, Canis lupus familiaris; settings: in vivo
# Mus musculus [14] = test: In vivo inhibition of DPP4 in lean mouse model at 0.3 mg/kg administered 10 mins prior to dextrose challenge; assay type: functional; parameters: scale not given: the % may be the effect or the level left
# [15] = Tmax in rhesus monkey at 1 mg/kg, iv and 2 mg/kg, po; assay type: ADME, organism-based, Macaca mulatta; settings: in vivo
# [16] = Plasma concentration in lean mouse at 0.3 mg/kg administered 10 mins prior to dextrose challenge; assay type: ADME, organism-based; parameters: dose 0.3 mg/kg
# [17] = Cmax in rat at 2 mg/kg, po; assay type: ADME, organism-based; parameters: dose 2 mg/kg, route oral; settings: in vivo
# [18] = Volume of distribution at steady state in rhesus monkey at 1 mg/kg, iv and 2 mg/kg, po; assay type: ADME, organism-based, Macaca mulatta; settings: in vivo, read-out: Vdss
# [19] = Terminal half life in rhesus monkey at 1 mg/kg, iv and 2 mg/kg, po; assay type: ADME, organism-based, Macaca mulatta; settings: in vivo, read-out: beta t1/2 (converted)
# Mus musculus [20] = test: Antidiabetic activity in lean mouse assessed as reduction in blood glucose AUC at 0.1 mg/kg, po administered 1 hr prior to dextrose challenge by oral glucose tolerance test; assay type: functional; parameters: scale not given: the % may be the effect or the level left
# [21] = Cmax in beagle dog at 2 mg/kg, po; assay type: ADME, organism-based, Canis lupus familiaris; parameters: dose 2 mg/kg, route oral; settings: in vivo
# [22] = biological target: Voltage-gated inwardly rectifying potassium channel KCNH2 (Homo sapiens, UniProt Q12809); test: Inhibition of human ERG channel
# [23] = Tmax in rat at 1 mg/kg, iv and 2 mg/kg, po; assay type: ADME, organism-based; settings: in vivo
# [24] = Oral bioavailability in rhesus monkey at 2 mg/kg; assay type: ADME, organism-based, Macaca mulatta; settings: in vivo
# [25] = Plasma clearance in beagle dog at 1 mg/kg, iv and 2 mg/kg, po; assay type: ADME, organism-based, Canis lupus familiaris
# [26] = Volume of distribution at steady state in beagle dog at 1 mg/kg, iv and 2 mg/kg, po; assay type: ADME, organism-based, Canis lupus familiaris; settings: in vivo, read-out: Vdss
# [27] = Oral bioavailability in rat at 2 mg/kg; assay type: ADME, organism-based; settings: in vivo
# Canis familiaris [28] = test: Dose normalized AUC in beagle dog at 2 mg/kg, po; assay type: ADME, organism-based, Canis lupus familiaris; parameters: dose 2 mg/kg, route oral; settings: in vivo
# Mus musculus [29] = species on record: Mus musculus; test: Induction in plasma GLP-1 level in lean mouse; assay type: functional, organism-based
# [30] = Plasma clearance in rat at 1 mg/kg, iv and 2 mg/kg, po; assay type: ADME, organism-based
# Mus musculus [31] = test: In vivo inhibition of DPP4 in lean mouse model administered 10 mins prior to dextrose challenge; assay type: functional, organism-based
# Mus musculus [32] = test: Antidiabetic activity in DPP-4i-deficient lean mouse assessed as inhibition of blood glucose excursion at 3 mg/kg administered 1 hr prior to dextrose challenge by oral glucose tolerance test relative to control; assay type: functional, organism-based; parameters: dose 3 mg/kg
# Prolyl endopeptidase FAP = biological target: T1, Prolyl endopeptidase FAP (Homo sapiens, UniProt Q12884); test: Inhibition of human FAP
# T1 sequence (Q12884 whole entry): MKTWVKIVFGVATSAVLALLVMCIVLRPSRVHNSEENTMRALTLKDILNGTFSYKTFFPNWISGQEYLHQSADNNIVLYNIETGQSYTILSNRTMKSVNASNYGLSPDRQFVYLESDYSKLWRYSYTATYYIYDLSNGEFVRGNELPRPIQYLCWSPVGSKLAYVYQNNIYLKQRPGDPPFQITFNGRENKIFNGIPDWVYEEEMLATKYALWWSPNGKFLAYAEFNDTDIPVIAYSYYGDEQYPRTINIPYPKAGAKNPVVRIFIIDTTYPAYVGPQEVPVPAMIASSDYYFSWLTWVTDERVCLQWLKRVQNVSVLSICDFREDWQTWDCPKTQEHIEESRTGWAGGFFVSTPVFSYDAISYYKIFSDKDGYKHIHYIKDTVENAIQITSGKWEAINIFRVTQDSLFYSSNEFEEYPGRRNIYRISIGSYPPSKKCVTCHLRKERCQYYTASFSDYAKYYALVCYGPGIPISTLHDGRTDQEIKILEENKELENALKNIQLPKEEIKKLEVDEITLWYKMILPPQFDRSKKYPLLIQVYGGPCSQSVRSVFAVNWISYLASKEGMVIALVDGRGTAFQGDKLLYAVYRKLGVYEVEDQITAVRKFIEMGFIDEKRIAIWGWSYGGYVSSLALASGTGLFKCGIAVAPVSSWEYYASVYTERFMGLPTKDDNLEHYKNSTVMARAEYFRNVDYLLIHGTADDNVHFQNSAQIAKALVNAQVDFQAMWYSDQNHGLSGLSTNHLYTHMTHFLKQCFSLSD
# Dipeptidyl peptidase 2 = Dipeptidyl peptidase 2 (Homo sapiens, UniProt Q9UHL4); test: Inhibition of QPP (unknown origin)
# Canis familiaris [33] = test: Cardiotoxicity in dog model assessed as QTc prolongation up to 30 mg/kg; assay type: toxicity, organism-based, Canis lupus familiaris; parameters: dose 30 mg/kg; settings: in vivo
# [34] = Dissociation constant, pKa of the compound; assay type: physicochemical
# Dipeptidyl peptidase 8 = Dipeptidyl peptidase 8 (Homo sapiens, UniProt Q6V1X1); test: Inhibition of human DPP8
# Canis familiaris [35] = test: Cardiotoxicity in cardiovascular dog model assessed as QTc prolongation at 3 mg/kg; assay type: toxicity, organism-based, Canis lupus familiaris, Heart; parameters: dose 3 mg/kg; settings: in vivo
# Sequence of Voltage-gated inwardly rectifying potassium channel KCNH2 (Q12809 whole entry): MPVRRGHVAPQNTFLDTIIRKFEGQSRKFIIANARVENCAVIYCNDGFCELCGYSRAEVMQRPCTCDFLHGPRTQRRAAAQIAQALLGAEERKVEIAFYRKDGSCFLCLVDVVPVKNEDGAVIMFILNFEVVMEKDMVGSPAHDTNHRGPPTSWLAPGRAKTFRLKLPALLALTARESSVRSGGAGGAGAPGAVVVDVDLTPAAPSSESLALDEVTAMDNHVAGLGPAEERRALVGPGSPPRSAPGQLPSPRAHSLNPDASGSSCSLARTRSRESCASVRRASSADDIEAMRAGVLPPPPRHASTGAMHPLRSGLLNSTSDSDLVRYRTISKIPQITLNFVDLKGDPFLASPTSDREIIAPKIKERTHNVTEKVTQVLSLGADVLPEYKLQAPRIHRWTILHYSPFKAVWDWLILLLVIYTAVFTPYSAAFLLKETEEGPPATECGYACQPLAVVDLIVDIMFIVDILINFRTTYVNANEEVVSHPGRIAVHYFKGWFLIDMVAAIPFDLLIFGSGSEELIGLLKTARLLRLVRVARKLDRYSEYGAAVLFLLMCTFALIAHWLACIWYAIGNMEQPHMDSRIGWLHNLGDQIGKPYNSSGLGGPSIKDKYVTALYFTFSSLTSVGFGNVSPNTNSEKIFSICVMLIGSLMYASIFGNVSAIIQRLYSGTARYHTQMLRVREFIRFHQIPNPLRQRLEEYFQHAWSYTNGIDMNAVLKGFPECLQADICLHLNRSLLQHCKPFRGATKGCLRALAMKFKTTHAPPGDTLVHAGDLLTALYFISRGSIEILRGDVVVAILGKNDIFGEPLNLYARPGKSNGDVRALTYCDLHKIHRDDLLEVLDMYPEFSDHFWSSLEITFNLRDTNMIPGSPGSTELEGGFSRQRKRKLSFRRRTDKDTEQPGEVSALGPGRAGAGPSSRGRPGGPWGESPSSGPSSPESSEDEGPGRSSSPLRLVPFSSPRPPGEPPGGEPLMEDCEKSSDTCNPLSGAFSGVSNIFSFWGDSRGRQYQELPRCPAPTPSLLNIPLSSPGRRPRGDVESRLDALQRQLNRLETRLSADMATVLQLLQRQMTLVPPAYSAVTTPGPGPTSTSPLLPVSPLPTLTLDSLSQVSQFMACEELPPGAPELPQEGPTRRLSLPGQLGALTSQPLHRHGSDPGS
# Sequence of Dipeptidyl peptidase 8 (Q6V1X1 whole entry): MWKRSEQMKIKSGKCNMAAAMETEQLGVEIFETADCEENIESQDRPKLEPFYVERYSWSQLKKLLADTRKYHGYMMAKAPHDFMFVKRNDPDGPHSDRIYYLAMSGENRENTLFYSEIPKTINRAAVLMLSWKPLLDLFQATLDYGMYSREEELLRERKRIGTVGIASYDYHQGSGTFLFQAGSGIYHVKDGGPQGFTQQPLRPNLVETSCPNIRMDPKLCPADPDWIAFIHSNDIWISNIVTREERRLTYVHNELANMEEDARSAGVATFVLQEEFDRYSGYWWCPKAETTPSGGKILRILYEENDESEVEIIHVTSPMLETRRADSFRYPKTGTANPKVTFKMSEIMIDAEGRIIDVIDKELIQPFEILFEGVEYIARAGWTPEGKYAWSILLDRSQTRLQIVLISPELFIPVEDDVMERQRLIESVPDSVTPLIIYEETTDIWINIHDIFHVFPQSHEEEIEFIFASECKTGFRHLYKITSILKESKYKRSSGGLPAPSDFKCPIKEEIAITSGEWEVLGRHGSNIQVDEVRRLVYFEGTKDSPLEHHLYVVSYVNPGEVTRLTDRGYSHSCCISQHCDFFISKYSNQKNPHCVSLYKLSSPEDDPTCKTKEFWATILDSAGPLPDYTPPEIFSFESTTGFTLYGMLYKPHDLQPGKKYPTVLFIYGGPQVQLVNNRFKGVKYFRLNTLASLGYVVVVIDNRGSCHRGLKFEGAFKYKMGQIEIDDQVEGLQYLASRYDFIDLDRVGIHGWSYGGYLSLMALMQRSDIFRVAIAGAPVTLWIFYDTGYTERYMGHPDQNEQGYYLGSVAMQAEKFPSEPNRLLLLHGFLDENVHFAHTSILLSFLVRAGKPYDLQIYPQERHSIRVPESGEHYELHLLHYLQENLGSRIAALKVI
# Sequence of Voltage-dependent L-type calcium channel subunit alpha-1C (Q13936 whole entry): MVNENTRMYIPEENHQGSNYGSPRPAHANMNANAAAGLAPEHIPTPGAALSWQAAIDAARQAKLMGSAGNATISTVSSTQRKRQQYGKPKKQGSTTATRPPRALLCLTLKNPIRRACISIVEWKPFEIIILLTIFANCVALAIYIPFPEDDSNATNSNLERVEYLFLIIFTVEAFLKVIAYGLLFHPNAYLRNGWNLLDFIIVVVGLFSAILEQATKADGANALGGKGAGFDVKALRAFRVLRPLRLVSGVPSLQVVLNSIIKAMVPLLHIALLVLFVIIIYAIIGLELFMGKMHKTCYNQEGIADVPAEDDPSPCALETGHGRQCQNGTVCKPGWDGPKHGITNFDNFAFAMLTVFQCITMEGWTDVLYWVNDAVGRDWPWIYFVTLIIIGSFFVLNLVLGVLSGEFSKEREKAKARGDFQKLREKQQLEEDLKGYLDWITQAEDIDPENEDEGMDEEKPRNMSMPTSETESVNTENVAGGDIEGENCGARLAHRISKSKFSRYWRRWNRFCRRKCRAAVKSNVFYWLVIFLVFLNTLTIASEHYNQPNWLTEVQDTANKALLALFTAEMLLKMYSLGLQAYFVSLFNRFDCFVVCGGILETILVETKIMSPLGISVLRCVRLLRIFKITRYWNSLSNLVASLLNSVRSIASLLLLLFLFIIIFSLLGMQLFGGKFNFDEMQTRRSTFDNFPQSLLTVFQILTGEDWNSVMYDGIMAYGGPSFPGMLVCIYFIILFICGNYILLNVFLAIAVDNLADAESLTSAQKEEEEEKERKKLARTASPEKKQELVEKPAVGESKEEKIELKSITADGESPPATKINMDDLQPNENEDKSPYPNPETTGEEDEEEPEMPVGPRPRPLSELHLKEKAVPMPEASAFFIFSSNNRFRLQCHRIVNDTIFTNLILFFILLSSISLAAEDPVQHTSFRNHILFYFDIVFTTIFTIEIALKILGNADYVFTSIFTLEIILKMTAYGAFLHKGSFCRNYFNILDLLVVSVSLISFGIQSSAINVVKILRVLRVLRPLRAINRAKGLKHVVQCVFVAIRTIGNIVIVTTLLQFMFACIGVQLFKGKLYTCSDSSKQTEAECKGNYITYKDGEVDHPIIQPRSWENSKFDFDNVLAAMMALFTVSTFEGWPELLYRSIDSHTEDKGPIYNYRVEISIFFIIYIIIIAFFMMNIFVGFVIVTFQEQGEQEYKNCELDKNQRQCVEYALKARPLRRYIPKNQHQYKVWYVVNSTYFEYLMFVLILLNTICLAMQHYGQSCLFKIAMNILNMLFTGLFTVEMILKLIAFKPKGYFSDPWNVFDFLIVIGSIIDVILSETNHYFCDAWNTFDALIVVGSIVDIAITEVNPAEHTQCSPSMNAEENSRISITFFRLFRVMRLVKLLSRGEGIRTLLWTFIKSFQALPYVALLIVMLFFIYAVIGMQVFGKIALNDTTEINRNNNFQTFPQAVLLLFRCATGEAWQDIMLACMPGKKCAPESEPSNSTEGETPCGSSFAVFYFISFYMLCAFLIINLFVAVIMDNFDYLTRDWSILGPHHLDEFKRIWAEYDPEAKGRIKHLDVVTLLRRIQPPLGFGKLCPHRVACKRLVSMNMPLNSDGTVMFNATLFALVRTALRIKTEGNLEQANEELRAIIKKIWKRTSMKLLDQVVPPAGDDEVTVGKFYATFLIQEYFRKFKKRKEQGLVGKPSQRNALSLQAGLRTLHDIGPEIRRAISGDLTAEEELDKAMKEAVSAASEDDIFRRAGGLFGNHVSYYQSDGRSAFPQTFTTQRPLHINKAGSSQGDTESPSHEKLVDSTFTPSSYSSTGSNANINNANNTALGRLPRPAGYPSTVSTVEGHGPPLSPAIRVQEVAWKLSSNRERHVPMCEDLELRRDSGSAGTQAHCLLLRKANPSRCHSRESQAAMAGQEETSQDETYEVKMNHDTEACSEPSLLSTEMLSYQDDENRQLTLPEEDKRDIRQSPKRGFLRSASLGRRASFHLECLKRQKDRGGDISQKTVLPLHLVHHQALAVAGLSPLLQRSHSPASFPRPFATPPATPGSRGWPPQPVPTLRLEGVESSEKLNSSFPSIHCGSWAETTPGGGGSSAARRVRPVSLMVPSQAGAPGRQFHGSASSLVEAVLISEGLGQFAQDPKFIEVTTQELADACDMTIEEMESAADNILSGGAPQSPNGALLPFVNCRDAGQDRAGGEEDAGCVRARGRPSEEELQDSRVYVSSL
smiles,measurement,setting,value
N[C@H]1C[C@@H](N2Cc3cn[nH]c3C2)CO[C@@H]1c1cc(F)ccc1F,Activity,Mus musculus [1],Active
same,inhibition (INH),[2],Not Active
same,inhibition (INH),[3],Not Active
same,Activity,Mus musculus [4],47%
same,AUC/dose,Rhesus monkey,7.33 µM·h/mg/kg
same,half-life,[5],13 h
same,Tmax,[6],3.5 h
same,AUC/dose,Rattus norvegicus,3.72 µM·h/mg/kg
same,clearance,[7],5.2 mL/min/kg
same,Activity,Mus musculus [8],Dose-dependent effect
same,Vd,[9],4.9 L/kg
same,half-life,[10],6.3 h
same,Cmax,[11],1480 nM
same,inhibition in vivo at 3 mg/kg,Mus musculus [12],53%
same,bioavailability,[13],83%
same,Activity,Mus musculus [14],>80%
same,Tmax,[15],1.1 h
same,concentration at 10 min,[16],260 nM
same,Cmax,[17],800 nM
same,Vd,[18],4.2 L/kg
same,half-life,[19],9.7 h
same,Activity,Mus musculus [20],27%
same,Cmax,[21],1920 nM
same,inhibition (INH),[22]; human,Not Active
same,Tmax,[23],0.5 h
same,bioavailability,[24],72%
same,clearance,[25],2.7 mL/min/kg
same,Vd,[26],3 L/kg
same,bioavailability,[27],70%
same,AUC/dose,Canis familiaris [28],16.1 µM·h/mg/kg
same,Activity,Mus musculus [29],Dose-dependent effect
same,clearance,[30],9.7 mL/min/kg
same,Activity,Mus musculus [31],Dose-dependent effect
same,inhibition,Mus musculus [32],inactive
N[C@H]1C[C@@H](N2Cc3nc(C(F)(F)F)[nH]c3C2)CO[C@@H]1c1cc(F)ccc1F,IC50,Prolyl endopeptidase FAP,> 100 µM
same,IC50,Dipeptidyl peptidase 2,> 100 µM
N[C@H]1C[C@@H](N2Cc3ccccc3O2)CO[C@@H]1c1cc(F)ccc1F,IC50,Prolyl endopeptidase FAP,> 100 µM
N[C@H]1C[C@@H](N2Cc3cnc(C(F)(F)F)nc3C2)CO[C@@H]1c1cc(F)c(F)cc1F,Activity,Canis familiaris [33],Non-toxic
same,pKa,[34],7.3
N[C@H]1C[C@@H](N2Cc3ccccc3C2=O)CO[C@@H]1c1cc(F)ccc1F,IC50,Dipeptidyl peptidase 8,> 100 µM
same,IC50,Prolyl endopeptidase FAP,> 100 µM
same,IC50,Dipeptidyl peptidase 2,> 100 µM
N[C@H]1C[C@@H](N2Cc3cn[nH]c3C2)CO[C@@H]1c1ccccc1Cl,IC50,Dipeptidyl peptidase 8,> 100 µM
same,IC50,Prolyl endopeptidase FAP,> 100 µM
same,IC50,Dipeptidyl peptidase 2,> 100 µM
Cc1nc2c(o1)CN([C@H]1CO[C@H](c3cc(F)ccc3F)[C@@H](N)C1)C2,IC50,Dipeptidyl peptidase 8,> 100 µM
same,IC50,Prolyl endopeptidase FAP,> 100 µM
same,IC50,Dipeptidyl peptidase 2,> 100 µM
N[C@H]1C[C@@H](N2Cc3cnc(C4CC4)nc3C2)CO[C@@H]1c1cc(F)c(F)cc1F,Activity,Canis familiaris [33],Non-toxic
same,IC50,[22],> 30 µM
N[C@H]1C[C@@H](N2Cc3cn[nH]c3C2)CO[C@@H]1c1ccc(F)cc1F,IC50,Dipeptidyl peptidase 8,> 100 µM
same,IC50,Prolyl endopeptidase FAP,> 100 µM
N[C@H]1C[C@@H](N2Cc3cnc(C(F)(F)F)nc3C2)CC[C@@H]1c1cc(F)c(F)cc1F,IC50,[22],4.8 µM
same,Activity,Canis familiaris [35],> 5%
same,pKa,[34],8.6
N[C@H]1C[C@@H](N2CCn3c(nnc3C(F)(F)F)C2)CO[C@@H]1c1cc(F)ccc1F,IC50,Dipeptidyl peptidase 8,> 100 µM
same,IC50,Prolyl endopeptidase FAP,> 100 µM
same,IC50,Dipeptidyl peptidase 2,> 100 µM
CC1(C)c2cnc(C3CC3)nc2CN1[C@H]1CO[C@H](c2cc(F)ccc2F)[C@@H](N)C1,IC50,Dipeptidyl peptidase 8,> 100 µM
same,IC50,Prolyl endopeptidase FAP,> 100 µM
N[C@@H](CC(=O)N1CCn2c(nnc2C(F)(F)F)C1)Cc1cc(F)c(F)cc1F,Activity,Mus musculus [8],Active
N[C@H]1C[C@@H](N2Cc3cn[nH]c3C2)CO[C@@H]1c1cc(F)ccc1Cl,IC50,Prolyl endopeptidase FAP,> 100 µM
same,IC50,Dipeptidyl peptidase 2,> 100 µM
CC1(C)c2nc(C3CC3)ncc2CN1[C@H]1CO[C@H](c2cc(F)ccc2F)[C@@H](N)C1,IC50,Dipeptidyl peptidase 8,> 100 µM
N[C@H]1C[C@@H](N2Cc3cn[nH]c3C2)CO[C@@H]1c1cc(F)c(F)cc1F,IC50,Dipeptidyl peptidase 8,> 100 µM
same,IC50,Prolyl endopeptidase FAP,> 6.4 µM
N[C@H]1C[C@@H](N2Cc3cn[nH]c3C2)CO[C@@H]1c1cc(F)c(Cl)cc1F,IC50,Dipeptidyl peptidase 8,> 100 µM
same,IC50,Prolyl endopeptidase FAP,> 100 µM
